Reference: patent US8629275B2, “AHCY hydrolase inhibitors for treatment of hyper homocysteinemia” (Merck Sharp & Dohme Corp., priority 2008, dated 2014)
pIC50: −log10 of the molar value.

Legend:
[1] = molecular target: recombinant expressed human or mouse AHCY enzyme (UniProt P23526); assay: In vitro AHCY activity assay (ThioGlo1 fluorescence, hydrolysis of SAH); format: biochemical; conditions: Example 1 average of n=3, Example 2 n=1
Method: In vitro AHCY Activity Assay
The AHCY enzyme assay is based on the principle of fluorescence emission following incubation of a reactive dye with the products of an AHCY catalyzed reaction. The reactive dye (Thioglo1) binds homocysteine through its thiol-containing moiety. The products of the AHCY catalyzed reaction, adenosine and homocysteine, are produced from the hydrolysis of SAH (s-adenosylhomocysteine) through AHCY's hydrolase activity.
The reaction is optimized in 96-, 384-, 1536- and 3456-assay plate formats, with recombinant expressed human or mouse AHCY enzyme. When run under initial velocity conditions, the assay is suitable for IC50 and % inhibition calculations.
• 1) ThioGlo1 (catalog 595501, Calbiochem); 100 mM in DMSO • 2) SAH (catalog A-9384, Sigma); 4.69 mM with 0.06 N HCl • 3) Aristeromycin (catalog A-0928, Sigma); 100 mM in DMSO • 4) NAD (catalog 43410, Sigma); 14.5 mM in water • 5) EDTA in 500 mM pH 8 (catalog BP2482-100, Fisher) • 6) DTT stock 200 mM in water • 7) AHCY enzyme (diluted with 100 mM tris pH7.5) Dilutions Immediately Prior to use: • 1. SAH 750 μM (10×) (dilute with 100 mM Tris pH 7.5) • 2. Aristeromycin (10×) (dilute to 1 mM with 100 mM Tris pH7.5) • 3. ThioGlo1 (10×) (dilute to 100 μM in Tris pH7.5) • 4. AHCY assay buffer (3.3×): 3 μM DTT, 150 μM NAD, 3 mM EDTA Protocol: As per 96-Assay Plate Well • 1. […] Read plate (Ex 380 Em 510)

[2] = molecular target: T1, AHCY (Homo sapiens, UniProt P23526); assay: Cell-based assay of AHCY inhibition (secreted homocysteine); conditions: secreted homocysteine from HEK293 and/or SH-SY5Y cells, 72 hrs; Example 1 average of n=4, Example 2 n=1
T1 construct: endogenous in cells; host or cells: HEK293 and/or SH-SY5Y
T1 sequence (P23526 2-432 limits assumed): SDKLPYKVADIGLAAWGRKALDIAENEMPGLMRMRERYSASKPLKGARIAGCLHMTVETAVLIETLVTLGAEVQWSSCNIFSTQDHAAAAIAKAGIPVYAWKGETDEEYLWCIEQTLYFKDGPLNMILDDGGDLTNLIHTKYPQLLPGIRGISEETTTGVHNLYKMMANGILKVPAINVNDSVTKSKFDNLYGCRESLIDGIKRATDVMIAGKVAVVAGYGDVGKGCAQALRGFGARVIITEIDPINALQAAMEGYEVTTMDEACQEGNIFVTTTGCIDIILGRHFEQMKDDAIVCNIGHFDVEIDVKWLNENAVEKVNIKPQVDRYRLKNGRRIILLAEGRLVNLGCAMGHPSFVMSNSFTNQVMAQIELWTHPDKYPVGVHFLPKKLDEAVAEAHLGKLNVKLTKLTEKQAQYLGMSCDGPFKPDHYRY

[3] = mice; Shea et al, Neuromolecular Medicine 2004; cited from earlier work

| pIC50 [1] | pIC50 [2] | SMILES | oxidative damage and cognitive impairment [3] |
| --- | --- | --- | --- |
| 4.75 | 7.55 | Nc1ncc(F)c2c1ncn2[C@@H]1C=C[C@@H](O)[C@H]1O [Example 2, (1S, 2R, 5R)-5-(4-amino-7-fluoro-1H-imidazo[4,5-c]pyridin-1-yl)cyclopent-3-ene-1,2-diol] | – |
| 7.38 | 8.82 | Nc1ncc(F)c2c1ncn2[C@@H]1CC[C@@H](O)[C@H]1O [Example 1, (1R,2S,3R)-3-(4-amino-7-fluoro-1H-imidazo[4,5-c]pyridin-1-yl)cyclopentane-1,2-diol] | – |
| – | – | Nc1nccc2c1ncn2[C@@H]1O[C@H](CO)[C@@H](O)[C@H]1O [3-deaza-adenosine] | prevent oxidative damage and cognitive impairment |
